Results reported in PubChem BioAssay (NCI).
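In this assay, cells in 96-well plates receive the compound at five concentrations for 48 hours. Endpoints are linearly interpolated between the surrounding concentrations. GI50 marks 50% less growth. The concentration for full growth arrest is given as TGI.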

Legend:
Assay in all cases: NCI anticancer screen, dose series, 48 h
KM12 colon = test system: KM12 colon
IGROV1 ovarian = test system: IGROV1 ovarian
NCI-H460 lung = test system: NCI-H460 lung
MALME-3M melanoma = test system: MALME-3M melanoma
UACC-62 melanoma = test system: UACC-62 melanoma
EKVX NSCLC = test system: EKVX NSCLC
T-47D breast = test system: T-47D breast
UO-31 renal = test system: UO-31 renal
OVCAR-3 ovarian = test system: OVCAR-3 ovarian
M14 melanoma = test system: M14 melanoma
SF-295 CNS = test system: SF-295 CNS
PC-3 prostate = test system: PC-3 prostate
SR leukemia = test system: SR leukemia
ACHN renal = test system: ACHN renal
SN12C renal = test system: SN12C renal
OVCAR-4 ovarian = test system: OVCAR-4 ovarian
TK-10 renal = test system: TK-10 renal
HOP-62 NSCLC = test system: HOP-62 NSCLC
RXF 393 renal = test system: RXF 393 renal
SK-MEL-2 melanoma = test system: SK-MEL-2 melanoma
MOLT-4 leukemia = test system: MOLT-4 leukemia
SNB-75 CNS = test system: SNB-75 CNS
BT-549 breast = test system: BT-549 breast
NCI-H522 lung = test system: NCI-H522 lung
HS 578T breast = test system: HS 578T breast
SNB-19 CNS = test system: SNB-19 CNS
SF-539 CNS = test system: SF-539 CNS
HCT-15 colon = test system: HCT-15 colon
CCRF-CEM leukemia = test system: CCRF-CEM leukemia
K-562 leukemia = test system: K-562 leukemia
HL-60(TB) leukemia = test system: HL-60(TB) leukemia
NCI-H226 lung = test system: NCI-H226 lung
U251 CNS = test system: U251 CNS
HCT-116 colon = test system: HCT-116 colon
DU-145 prostate = test system: DU-145 prostate
MCF7 breast = test system: MCF7 breast
786-0 renal = test system: 786-0 renal
SK-OV-3 ovarian = test system: SK-OV-3 ovarian
LOX IMVI melanoma = test system: LOX IMVI melanoma
UACC-257 melanoma = test system: UACC-257 melanoma
MDA-MB-231 breast = test system: MDA-MB-231 breast
COLO 205 colon = test system: COLO 205 colon
SK-MEL-5 melanoma = test system: SK-MEL-5 melanoma
SK-MEL-28 melanoma = test system: SK-MEL-28 melanoma
NCI-H23 lung = test system: NCI-H23 lung
NCI/ADR-RES ovarian = test system: NCI/ADR-RES ovarian
SF-268 CNS = test system: SF-268 CNS
CAKI-1 renal = test system: CAKI-1 renal
OVCAR-5 ovarian = test system: OVCAR-5 ovarian
A549 NSCLC = test system: A549 NSCLC
HOP-92 NSCLC = test system: HOP-92 NSCLC
SW-620 colon = test system: SW-620 colon
MDA-MB-435 = test system: MDA-MB-435
HT29 colon = test system: HT29 colon
A498 renal = test system: A498 renal
RPMI-8226 leukemia = test system: RPMI-8226 leukemia
OVCAR-8 ovarian = test system: OVCAR-8 ovarian
HCC-2998 colon = test system: HCC-2998 colon

## Oc1ccc(C(O)(c2ccccc2)c2ccccc2)c2ccccc12
KM12 colon
  TGI: 8.05 µM
IGROV1 ovarian
  TGI: 5.62 µM
NCI-H460 lung
  TGI: > 100 µM
MALME-3M melanoma
  TGI: 23.2 µM
UACC-62 melanoma
  TGI: 3.61 µM
EKVX NSCLC
  TGI: 26.4 µM
T-47D breast
  TGI: 24 µM
UO-31 renal
  TGI: 11.6 µM
OVCAR-3 ovarian
  TGI: 3.93 µM
M14 melanoma
  TGI: 10.7 µM
SF-295 CNS
  TGI: 8.19 µM
PC-3 prostate
  TGI: 14.2 µM
SR leukemia
  TGI: 7.27 µM
ACHN renal
  TGI: 3.73 µM
SN12C renal
  TGI: 6.87 µM
OVCAR-4 ovarian
  TGI: 20.7 µM
TK-10 renal
  TGI: 8.73 µM
HOP-62 NSCLC
  TGI: 7.16 µM
RXF 393 renal
  TGI: > 100 µM
SK-MEL-2 melanoma
  TGI: 7.25 µM
MOLT-4 leukemia
  TGI: > 100 µM
SNB-75 CNS
  TGI: 18.2 µM
BT-549 breast
  TGI: 26.1 µM
NCI-H522 lung
  TGI: 7.17 µM
HS 578T breast
  TGI: 44.8 µM
SNB-19 CNS
  TGI: 19.8 µM
SF-539 CNS
  TGI: 4.62 µM
HCT-15 colon
  TGI: 2.9 µM
CCRF-CEM leukemia
  TGI: 1.8 µM
K-562 leukemia
  TGI: 23.5 µM
HL-60(TB) leukemia
  TGI: > 100 µM
NCI-H226 lung
  TGI: 9.8 µM
U251 CNS
  TGI: 2.91 µM
HCT-116 colon
  TGI: 10.7 µM
DU-145 prostate
  TGI: 14 µM
MCF7 breast
  TGI: > 100 µM
786-0 renal
  TGI: 6.61 µM
SK-OV-3 ovarian
  TGI: 14.1 µM
LOX IMVI melanoma
  TGI: 2.62 µM
UACC-257 melanoma
  TGI: 23.7 µM
MDA-MB-231 breast
  TGI: 5.27 µM
COLO 205 colon
  TGI: 18.6 µM
SK-MEL-5 melanoma
  TGI: 14.6 µM
SK-MEL-28 melanoma
  TGI: 29.9 µM
NCI-H23 lung
  TGI: 11.8 µM
NCI/ADR-RES ovarian
  TGI: 6.58 µM
SF-268 CNS
  TGI: 9.63 µM
CAKI-1 renal
  TGI: 11.1 µM
OVCAR-5 ovarian
  TGI: 5.96 µM
A549 NSCLC
  TGI: 11.9 µM
HOP-92 NSCLC
  TGI: 5.22 µM
SW-620 colon
  TGI: 9.64 µM
MDA-MB-435
  TGI: 6.01 µM
HT29 colon
  TGI: 14.1 µM

## Nc1ncc(-c2ccc3ncnc(N4CCc5ccc(Cl)cc54)c3c2)cc1C(F)(F)F
A498 renal
  GI50: 0.301 µM
  TGI: 2.52 µM
KM12 colon
  GI50: 2.48 µM
  TGI: 48.3 µM
IGROV1 ovarian
  GI50: 0.188 µM
  TGI: 0.964 µM
NCI-H460 lung
  GI50: 1.02 µM
  TGI: 13.7 µM
MALME-3M melanoma
  GI50: 0.919 µM
  TGI: 6.22 µM
UACC-62 melanoma
  GI50: 0.965 µM
  TGI: 11.1 µM
EKVX NSCLC
  GI50: 0.507 µM
  TGI: 18.7 µM
T-47D breast
  GI50: 0.557 µM
  TGI: 10.9 µM
UO-31 renal
  GI50: 0.254 µM
  TGI: 4.62 µM
OVCAR-3 ovarian
  GI50: 1.05 µM
  TGI: 15.1 µM
M14 melanoma
  GI50: 4.63 µM
  TGI: 26 µM
SF-295 CNS
  GI50: 1.4 µM
  TGI: 16.5 µM
RPMI-8226 leukemia
  GI50: 2.82 µM
  TGI: > 100 µM
PC-3 prostate
  GI50: 0.84 µM
  TGI: 16 µM
SR leukemia
  GI50: 2.55 µM
  TGI: > 100 µM
ACHN renal
  GI50: 0.569 µM
  TGI: 13.2 µM
SN12C renal
  GI50: 0.465 µM
  TGI: 15.9 µM
OVCAR-4 ovarian
  GI50: 1.07 µM
  TGI: 3.23 µM
TK-10 renal
  GI50: 1.36 µM
  TGI: 11 µM
HOP-62 NSCLC
  GI50: 1.74 µM
  TGI: 13.2 µM
RXF 393 renal
  GI50: 0.181 µM
  TGI: 0.864 µM
SK-MEL-2 melanoma
  GI50: 5.12 µM
  TGI: 23.5 µM
MOLT-4 leukemia
  GI50: 1.63 µM
  TGI: > 100 µM
OVCAR-8 ovarian
  GI50: 2.15 µM
  TGI: 22.6 µM
SNB-75 CNS
  GI50: 0.113 µM
  TGI: 1.64 µM
BT-549 breast
  GI50: 1.82 µM
  TGI: 17.2 µM
NCI-H522 lung
  GI50: 1.76 µM
  TGI: 17.9 µM
HS 578T breast
  GI50: 0.326 µM
  TGI: 3.05 µM
SNB-19 CNS
  GI50: 2.63 µM
  TGI: 23.7 µM
SF-539 CNS
  GI50: 1.61 µM
  TGI: 10.4 µM
HCT-15 colon
  GI50: 1.3 µM
  TGI: 22.6 µM
CCRF-CEM leukemia
  GI50: 3.87 µM
  TGI: > 100 µM
K-562 leukemia
  GI50: 3.98 µM
  TGI: > 100 µM
HL-60(TB) leukemia
  GI50: 0.723 µM
  TGI: > 100 µM
HCC-2998 colon
  GI50: 3.43 µM
  TGI: > 100 µM
NCI-H226 lung
  GI50: 3.04 µM
  TGI: 24.1 µM
U251 CNS
  GI50: 2.65 µM
  TGI: 16.6 µM
HCT-116 colon
  GI50: 2.53 µM
  TGI: 16.6 µM
DU-145 prostate
  GI50: 1.43 µM
  TGI: 18.2 µM
MCF7 breast
  GI50: 0.375 µM
  TGI: 14.9 µM
786-0 renal
  GI50: 1.6 µM
  TGI: 12 µM
SK-OV-3 ovarian
  GI50: 1.3 µM
  TGI: 7.04 µM
LOX IMVI melanoma
  GI50: 0.734 µM
  TGI: 11.9 µM
UACC-257 melanoma
  GI50: 2.86 µM
  TGI: 20.9 µM
MDA-MB-231 breast
  GI50: 1.29 µM
  TGI: 12.4 µM
COLO 205 colon
  GI50: 3.68 µM
  TGI: 30.5 µM
SK-MEL-5 melanoma
  GI50: 5.08 µM
  TGI: 28.8 µM
SK-MEL-28 melanoma
  GI50: 2.01 µM
  TGI: 13.9 µM
NCI-H23 lung
  GI50: 3.79 µM
  TGI: 29.4 µM
NCI/ADR-RES ovarian
  GI50: 2.26 µM
  TGI: 91.1 µM
SF-268 CNS
  GI50: 1.13 µM
  TGI: 24.7 µM
CAKI-1 renal
  GI50: 0.457 µM
  TGI: 5.56 µM
OVCAR-5 ovarian
  GI50: 0.916 µM
  TGI: 14.4 µM
A549 NSCLC
  GI50: 1.29 µM
  TGI: 14 µM
HOP-92 NSCLC
  GI50: 0.137 µM
  TGI: 6.41 µM
SW-620 colon
  GI50: 3.55 µM
  TGI: 37.3 µM
MDA-MB-435
  GI50: 1.68 µM
  TGI: 13.5 µM
HT29 colon
  GI50: 1.83 µM
  TGI: 16.2 µM
